Results reported in US20240226058A1, “STABILIZED CANNABINOID COMPOSITIONS AND METHODS OF PREPARATION THEREOF” (priority 2020, published 2024).

What was measured:
[1] = Cannabinoid stability in cold-brewed coffee with tocopherol-containing emulsions; assay type: physicochemical; conditions: cold-brewed coffee base (FIG. 5)
Excerpt: FIG. 5 is a graph showing quantified THC content when alpha-tocopherol (Vitamin E, VE) was incorporated into our emulsion alongside THC. Alpha-tocopherol (Vitamin E, VE) was incorporated into the emulsion alongside THC.
FIG. 6 is a graph showing cannabinoid stability testing on a cold-brewed coffee product (20× concentrated base and final product) using two different emulsions containing tocopherols (QNE=our in-house Q-naturale+VitE emulsion; NGAO=Nanogen's (a 3rd party emulsion provider) antioxidant formulation).

[2] = THC content in infused hop water stored at room temperature; assay type: physicochemical; conditions: for protection of cannabinoid API against oxidative damage: infused beverage, tocopherols emulsified with cannabis oil, ascorbic acid about 0.5-1 mM in aqueous base
[3] = Heat-accelerated (~37° C.) THC stability with aqueous-phase vitamin C and/or EDTA; assay type: physicochemical; conditions: for THC loss compared to control: vitamin C or EDTA individually, actual hop water base (FIG. 9)
[4] = THC loss in RO water at pH 3.6 vs. neutral pH; assay type: physicochemical; conditions: 20 mg THC/355 mL, citric acid to pH 3.6 (FIG. 4)
Description: FIG. 4 is a graph showing an experiment ruling out pH as a driving factor behind THC loss. Dosed RO water to 20 mg THC/355 mL and used citric acid to pH down to 3.6 (which is the pH of the Infused hop water products) vs. neutral pH (had to bring H2O pH up a bit using sodium carbonate). No difference was observed.

[5] = In-house comparison of oxidation rates of emulsified cannabinoids
[6] = Color and flavor stability of infused hop water at 37° C. incubation; assay type: physicochemical

For `Cc1c(C)c2c(c(C)c1O)CC[C@@](C)(CCC[C@H](C)CCC[C@H](C)CCCC(C)C)O2` [Alpha-tocopherol, alpha-tocopherol], the “THC content, emulsion formulated with vs without Vitamin E” value [1] was “no appreciable difference”.

With `CCCCCc1cc(O)c2c(c1)OC(C)(C)c1ccc(C)cc1-2` [CBN, cannabinol] the “Maximal CBN levels observed” value ([2]; room temperature infused hop water samples (FIG. 2)) was “about 20 % of the original THC content”.

In the case of `O=C(O)CN(CCN(CC(=O)O)CC(=O)O)CC(=O)O` [EDTA, ethylenediaminetetraacetic acid], the “THC loss compared to control” value [3] is reported as “able to mitigate THC loss compared to control, but did not fully prevent it”.

With `CCCCCc1cc(O)c2c(c1)OC(C)(C)[C@@H]1CCC(C)=C[C@@H]21` [THC, Δ^9-tetrahydrocannabinol, reference compound] the “rate of THC loss” value ([2]; infused hop water beverages, room temperature, no antioxidants added, linear (FIG. 1)) was “roughly −0.35 % THC per day”, the “rate of THC loss in high dissolved oxygen (DO) samples” value ([3]; aerated samples, shaken with air exposure (FIG. 8)) was “fastest rate of THC loss” and the “rate of THC loss with intentional increase in DO levels” value ([3]; heat-accelerated, three emulsion formulations (FIG. 10)) was “faster rates of loss”. The “THC loss, pH 3.6 vs neutral pH” value [4] was “No difference” and the “rate of oxidation compared to CBD” value [5] was “drastically faster rates of oxidation”.

With `O=C1O[C@H]([C@@H](O)CO)C(O)=C1O` [vitamin C, ascorbic acid] the “protection of cannabinoid API against oxidative damage” value [2] was “ample protection”, the “THC loss compared to tocopherol-only preparations” value ([2]; room temperature, after roughly five months) was “negligible amounts of THC loss” and the “antioxidant efficacy between concentrations” value ([3]; 0.5-10 mM vitamin C, infused hop water, 4 weeks heat-accelerated (~9 months at RT) (FIG. 11)) was “little difference”. The “protection to THC” value ([3]; 30 days @ ~37° C., equivalent to ~10 months at room temperature) was “sufficient protection”, the “THC (cannabinoid) loss” value ([3]; Vitamin C 176 ppm=1 mM and/or EDTA 25 ppm in aqueous phase, hop terpene-infused base (FIG. 7)) was “slowed rates of cannabinoid loss” and the “concentration of vitamin C concluded sufficient” value ([3]; infused hop water products (FIG. 11)) was 500 µM. For the same molecule, the “THC loss compared to control” value [3] was “able to mitigate THC loss compared to control, but did not fully prevent it”, the “color and flavor alterations in the beverage product” value ([6]; heat-accelerated, 30 days @ ~37° C.) was “strongly protected against unfavorable color and flavor alterations” and the “formation of off-colors and flavors” value ([6]; infused hop water, 3 weeks at 37° C., EDTA 25 ppm, vitamin C 176 ppm) was “largely prevent formation of off-colors and flavors”.

In the case of Tocopherols, the “protection of cannabinoid API against oxidative damage” value [2] is reported as “not found to suitably mitigate oxidative damage by itself”.
